# Columns and labels:
# [1] = test system: Akt phosphorylation in Aβ42-expressing SH-SY5Y cells; assay: Akt activation in Aβ42-expressing cells (adenovirus/doxycycline, insulin-stimulated); format: cell-based
# Protocol: Adv TetOn and TRE-Aβ42 viruses were described previously (Magrane et al., 2005). […] Insulin (10 or 40 nM) was added in the last 20-30 min before harvest. […] Cell extracts were prepared in lysis buffer [20 mM Tris-HCl (pH 7.5), 150 mM NaCl, 1 mM EDTA, 1 mM Na3VO4, 1% NP-40, 10% Glycerol, 1 mM Na4P2O7, 1 μg/ml Leupeptin, 1 μg/ml Pepstatin A, 1 μg/ml Aprotinin, 0.1 mM phenylmethylsulfonyl fluoride, and protease inhibitor cocktail (Roche)] and were stored at −80° C. until use.
# Whole-cell extracts were used directly for western blot analysis (20˜30 μg). Extracts from cultured cells prepared in lysis buffer, were diluted into Laemmli sample buffer, heated (95° C., 10 min), cleared by centrifugation, separated on SDS-PAGE and transferred to PVDF membrane (Immobilon-P; Millipore). Membranes were blocked in TBS containing 0.3% Tween-20 and 5% (wt/vol) non-fat dry milk. After incubation with primary antibodies (18 hr at 4° C. in buffer containing 5% bovine serum albumin (BSA) and 0.05% NaN3), blots were washed and incubated in horseradish peroxidase (HRP)-conjugated secondary antibodies (1:2000 dilution; Cell Signaling). Signals were detected using ECL reagents and quantified using a Kodak Image Station 4000R.
# […]. […] […]. […] […].
# [2] = test system: Akt Ser473 phosphorylation in rat primary cortical neurons; assay: Non-amyloid insulin resistance model (palmitate/ceramide) in primary cortical neurons; format: cell-based; conditions: palmitate 300 μM; PS48 100 nM, 24 hrs; insulin 20 nM
# Protocol: FIG. 1B. Non-amyloid-based insulin resistance model. Partial restoration of insulin-induced Akt activation in rat primary cortical neurons exposed to the fatty acid neurotoxin palmitate (300 μM). […] . The same result was obtained in ceramide-treated (50 μM) primary neurons (not shown); *p<0.05). Representative western blot above, n=3 experiments.
# SH-SY5Y were left undifferentiated.
# [3] = test system: phospho-GSK (GSK3α/β) in SH-SY5Y cells; assay: Cellular phospho-GSK levels in SH-SY5Y cells; format: cell-based; conditions: PS48 1 μM 0 to 2 hours; 0-100 μM 20 min
# Protocol: FIG. 8B. PS48 over time (1 μM; 0 to 2 hours) and concentration (20 min; 0-100 μM) was applied to SH-SY5Y cells. No changes in cellular phospho-GSK levels were observed.
# [4] = test system: APP/PS-1 transgenic mice; assay: Oral glucose tolerance test in APP/PS-1 transgenic mice; format: in vivo, mouse; conditions: TG mice on standard diet, approximately 15.5 months; p<0.05
# Protocol: At the end of phase 2 (active drug) trial, OGTT was administered to the standard diet animals. Animals were approximately 15.5 months at the time of the assay.
# [5] = test system: C57BL/6 mice; assay: Safety of intravenous PS48 over 2 weeks; format: in vivo, mouse
# Protocol: (§1) Finally, a series of in vivo experiments was performed to assess safety of treatment with PS48. […] Similarly, when PS48 was given by oral gavage over 2 weeks, there were no signs of toxicity by gross observation, organ specific necropsy, or weight.
# For intravenous PS48, adult male C57BL/6 mice (Charles River, n=6 per group) were fed ad libitum and dosed with PS48 or vehicle in an escalating schedule from 3-20 mg/kg IV daily; 3-10 mg/kg days 1-6, and 20 mg/kg days 7-13. Tail vein blood sugars were obtained 30, 60, and 120 minutes after every third dose.
# Liver transaminases ALT and AST, as well as muscle creatine kinase (CK), were also measured to assess possible liver toxicity and possible general tissue toxicity, respectively. A change in ALT, albeit statistically significant, was very small.
# [6] = test system: C57BL/6 mice; assay: Safety of PS48 by oral gavage for 14 days; format: in vivo, mouse; conditions: oral gavage 1 or 50 mg/kg per day
# Protocol: as §1
# Adult C57BL/6 mice (n=6 per group) were administered PS48 for 14 days. A low dose group received 1 mg/kg per day, while a high dose group received 50 mg/kg per day. A negative control group received corn oil. […] Body and organ specific weights were unaffected at necropsy. Fasting serum glucose at trial end was unchanged (˜150 mg/dl).
# [7] = test system: C2C12 myotubes; assay: Cell viability (cytoprotection) in C2C12 myotubes
# Protocol: Cell viability as measured by MTT assay.
# Mouse C2C12 cells (ATCC) were grown in Dulbecco's modified Eagle medium (DMEM), 20% fetal bovine serum (FBS) (Invitrogen), and maintained for passage below 60% confluence. Cultures at or above 90% confluence were then differentiated in DMEM, 2% adult horse serum (DM) for 3 days before use.
# [8] = test system: SH-SY5Y cells; assay: Cell viability, MTT assay, Aβ42-expressing SH-SY5Y cells
# Protocol: FIG. 2A. Cell viability as measured by MTT assay.
# SH-SY5Y cells were washed twice in warm Dulbecco's phosphate-buffered saline (DPBS) and incubated in 1 ml DMEM containing 0.5 mg (3-[4,5-dimethylthiazol-2-yl]-2,5-diphenyltetrazolium bromide) (MTT or WST; Molecular Probes, Eugene, OR) for 2-3 h at 37° C. and 5% CO2. The medium was aspirated and the cells were washed twice with pre-warmed DPBS. The formazan salts were dissolved in 1 ml pure ethanol before use. Cells were homogenized by repetitive pipetting and centrifuged for 5 min at 4500 rpm, and the supernatant collected. Absorbance was read against an ethanol blank at 590 nm.
smiles,measurement,setting,value
"O=C(O)/C=C(/CCc1ccc(Cl)cc1)c1ccccc1 [PS48, (Z)-5-(4-chlorophenyl)-3-phenylpent-2-enoic acid]",concentration at which the dose-dependent reversal became apparent,"[1]; SH-SY5Y and C2C12 myotube cell lines, p<0.01",100 nM
same,reversal of Aβ42 inhibition of insulin-stimulated Akt phosphorylation,"[1]; SH-SY5Y and C2C12 myotube data combined, PS48 100 nM and 1 μM (and 10 μM)",significantly reversed the Aβ42 effect
same,Akt activation (pT308) in β-amyloid-expressing cells,"[1]; SH-SY5Y, PS48 1 μM or insulin 100 nM added 2 hrs before doxycycline, insulin 40 nM 20 min prior to harvest",restored basal Akt activation levels
same,"basal Akt, compound alone","[1]; SH-SY5Y, PS48 1 μM, no Aβ42 induction",did not over-stimulate
same,Akt activity: phosphorylation of GSK3α/β consensus peptide by immunoprecipitated Akt (in vivo-in vitro coupled assay),"[1]; SH-SY5Y, PS48 pre-treatment 50 nM, 2 hrs before doxycycline",prevented the inhibition of peptide phosphorylation by Aβ42
same,inhibition of Akt Ser473 phosphorylation by palmitate,[2],partly reversed inhibition of Akt Ser473 phosphorylation by palmitate
same,resting cellular pGSK levels,[3],no effect
same,response to glucose challenge (OGTT),[4],helped to normalize the glucose response
same,behavioral changes,"[5]; 3-20 mg/kg IV daily, 2-week trial",No behavioral changes
same,change in muscle creatine kinase (CK),[5]; IV daily for 14 days,no significant change
same,change in ALT,"[5]; IV daily for 14 days, statistically significant",very small
same,mean body weight or mean blood sugars,"[5]; IV, 3-20 mg/kg daily",no significant change
same,gross necropsy,"[5]; IV, after 14 days",no abnormalities
same,behavioral changes,[6],No overt behavioral changes
same,body and organ specific weights at necropsy,[6],unaffected
same,tolerability,[6],well tolerated
same,fasting serum glucose at trial end,[6]; unchanged,~150 mg/dL
same,cytoprotection,[7],same cytoprotection
same,"cell viability, comparison with PPAR agonist (FIG. 2B)","[8]; PS48 10 μM, pioglitazone 5 μM",compared favorably
same,cell viability (MTT) of amyloid-bearing cells,"[8]; pretreatment before doxycycline, PS48 10 μM or insulin 100 nM, harvested at 48 hrs",reverted cells to basal condition or better

# From US12653799B2, “Compositions and methods for treating Alzheimer's disease” (ELEANORE BENNETT CHARITABLE TRUST #2, priority 2021, dated 2026)
